{"source": "paper PMC5478271", "about": "“Chemical structure-guided design of dynapyrazoles, cell-permeable dynein inhibitors with a unique mode of action” (eLife, 2017)", "key": {"[1]": {"system": "CAD cells", "experiment": "Lysosome motility assay in CAD cell neurites (LysoTracker)", "assay_type": "cell-based, murine", "conditions": "for Percentage of retrograde-directed lysosomes moving slower than 25 nm/s: 60 min; for Average track length of moving particles (lysosomes): 1 min imaging, control 32 ± 11 µm", "description": "This bidirectional transport of lysosomes requires kinesins and dynein 1 and can be observed by imaging live cells stained with the LysoTracker dye ([Vale, 2003]; [Pu et al., 2016]). A coupling between anterograde and retrograde motion has been described for membrane-bound organelles, with disruption of dynein-driven motion blocking bi-directional organelle motility ([Barlan et al., 2013]). We imaged control solvent (0.1% DMSO) treated cells and observed bidirectional motion of LysoTracker-labelled puncta (Figure 5E,H,K, Video 5). Overlays of successive images from a time-lapse series, color-coded for displacement, reveal organelle displacements (Figure 5H–J). […] Treatment with dynapyrazole-A suppressed bidirectional motion. In particular, the percentage of retrograde-directed lysosomes moving slower than 25 nm/s increased to ~47% (3.5µM) and ~59% (5µM) while the proportion of lysosomes moving at speeds > 250 nm/s decreased to below 10% (Figure 5N). We observed equivalent effects of dynapyrazole-A on anterograde motion velocities (kymographs in Figure 5K,L and M). In control cells, lysosomes with measureable displacements had trajectories that averaged 32 ± 11 µm (Figure 5O). Dynapyrazole-A (3.5 µM, Figure 5I and L) reduced the average track length of moving particles to 15.7 ± 4.7 µm, which can be seen as white punctae that result from the overlay of multiple color-coded frames without particle translocation. A higher dose of dynapyrazole-A 5 µM) shortened the average track length of moving particles to 6.7 ± 2.7 µm (Figure 5J,M,O). […] Higher concentrations of dynapyrazole-A (15 µM) lowered intracellular ATP levels by ~70% at 3 hr (Figure 5—figure supplement 5).\nCAD cells (catecholaminergic neuronal tumor cell line, RRID:CVCL_0199) were maintained in DMEM/F12 medium with 10% Fetal Bovine Serum ([Qi et al., 1997]). Cell line identity was confirmed by the morphological response to serum withdrawal (i.e. neurite formation), a previously-documented characteristic of this cell line ([Qi et al., 1997]). 24 hr before the experiment cells were plated on coverslips in serum-free medium to induce neurite formation. Cells were treated with inhibitors or control solvent (0.1% DMSO final in all experiments) for 60 min, then lysosomes were labeled with 0.1 µM (final concentration) LysoTracker Red DND-99 (Molecular Probes) and used for microscopy immediately after LysoTracker addition.\nMicroscopy was performed using a Nikon TE-2000 inverted microscope equipped with a LED X-Cite illuminator (Lumen Dynamics) at 37 degrees. Images were acquired with a Hamamatsu ORCA-Flash 4.0 camera driven by MetaMorph software at a rate of 1 frame per second for 1 min. Lysosome motility in neurites was analyzed using Diatrack software (http://www.diatrack.org/), particle velocities were measured from frame to frame and the total length of trajectories divided by the number of analyzed organelles was calculated for every experimental condition."}, "[2]": {"system": "IMCD3 cells stably expressing mNeonGreen-IFT88", "experiment": "Intraflagellar transport assay (mNeonGreen-IFT88 particles in primary cilia)", "assay_type": "cell-based, murine", "description": "To quantitatively assess the effect of dynapyrazole-A treatment on intraflagellar transport, we analyzed time-lapse images of cilia using KymographDirect, an automated analysis algorithm that extracts particle velocities from kymographs ([Mangeol et al., 2016]). […] Under control conditions (0.3% DMSO, Figure 4B), anterograde particles moved with a speed of 694 ± 117 nm/s (Figure 4D and F, mean ± S.D., 429 particles, 38 cilia) and retrograde particles moved at 421 ± 156 nm/s (Figure 4D and F, 244 particles, 38 cilia), consistent with previous studies ([Ye et al., 2013]). […] After 10 min of treatment, reductions in velocities were similar to those at the 5 min time point (Figure 4—figure supplement 1). Treatment of cilia with a higher dynapyrazole-A concentration (10 µM) slowed both retrograde- and anterograde-directed motion (Figure 4—figure supplement 2). […] We note that dynapyrazole-A, at concentrations close to the IC50 for inhibiting microtubule gliding in vitro, alters intraflagellar transport in a manner similar to what has been observed following dynein 2 loss-of-function in Chlamydomonas ([Engel et al., 2012]).\nMurine inner medullary collecting duct (IMCD3) cells stably expressing mNeonGreen-IFT88 were maintained in DMEM/F12 supplemented with 10% FBS. Cells were typically passaged fewer than 10 times following thawing of frozen stocks. Cells were described previously ([Ye et al., 2013]). 6 × 10^5 cells were seeded onto 22-mm coverslips in a six well plate and incubated for 24 hr at 37°C. The media was then replaced with DMEM/F12 +0.2% FBS and cells were incubated 24 hr to promote cilium formation. Immediately prior to imaging, media was replaced with phenol red-free media (Leibovitz's L-15 + 0.2% FBS) containing either carrier solvent control (0.3% DMSO) or compound. IFT88 transport was observed using a TE2000-E spinning disk confocal microscope (Nikon PlanApo 100x/1.45 objective lens) fitted with a Photometrics Cascade II (EMCCD 512) camera and imaged at a frame rate of 2 frames/s. Kymographs were generated in FIJI using KymographClear and the velocities of mNeonGreen-IFT88 foci movement were quantified by KymographDirect ([Mangeol et al., 2016]). The algorithm used to identify IFT88 foci could identify particles with velocitities ≥ 25nm/s as moving particles.\nFor washout experiments, cells were exposed to a 5-min compound treatment as described above. Cells were then washed twice with 5 mL of L-15 supplemented with 10% FBSand 0.3% DMSO. A 5-min incubation followed each wash. Imaging was performed as described above immediately after the second 5-min wash and incubation step had been completed. For washout experiments shown in Figure 4—figure supplement 3, wash steps were performed with either L-15 supplemented with 10% FBS or L-15 supplemented with 0.2% FBS. Following washout of compound, cells were incubated at 37° for 60-min and then imaged.\nStatistical analysis of intraflagellar transport frequencies: Run frequencies output directly from KymographDirect were tabulated across all cilia imaged in a given condition (see Figure 4—figure supplement 2). For each of two experimental conditions (5 µM 8, 10 µM 8) and the respective controls, an un-paired T-test was performed for the difference of means control and compound treatment. This analysis was performed for each direction of motion."}, "[3]": {"conditions": "5 µM 5 min, then washout 10 min in 10% FBS, 0.3% DMSO"}, "[4]": {"conditions": "5 µM, then 0.2% FBS washout for 1 hr"}, "[5]": {"conditions": "5 µM, then 10% FBS washout for 1 hr"}}}
{"molecule": "N#Cc1c(C2(c3ccc(Cl)cc3)CC2)nn2c1[nH]c(=O)c1cc(I)ccc12", "note": "[Compound 8, 2-[1-(4-chlorophenyl)cyclopropyl]-7-iodo-5-oxo-4H-pyrazolo[1,5-a]quinazoline-3-carbonitrile]", "values": [{"measurement": "Proportion of lysosomes moving at speeds > 250 nm/s", "setting": "[1]; 3.5 µM and 5 µM, control ~20%", "result": "below 10%"}, {"measurement": "Percentage of retrograde-directed lysosomes moving slower than 25 nm/s", "setting": "[1]; 3.5 µM, control ~20%", "result": "~ 47%"}, {"measurement": "Average track length of moving particles (lysosomes)", "setting": "[1]; 3.5 µM", "result": "15.7 ± 4.7", "unit": "µm"}, {"measurement": "Percentage of retrograde-directed lysosomes moving slower than 25 nm/s", "setting": "[1]; 5 µM, control ~20%", "result": "~ 59%"}, {"measurement": "Average track length of moving particles (lysosomes)", "setting": "[1]; 5 µM", "result": "6.7 ± 2.7", "unit": "µm"}, {"measurement": "Fa, anterograde frequency after washout", "setting": "[2]; [3]", "result": "14.2 ± 6", "unit": "counts/minute"}, {"measurement": "Fr, retrograde frequency after washout", "setting": "[2]; [3]", "result": "9.6 ± 7", "unit": "counts/minute"}, {"measurement": "Va, anterograde velocity after washout", "setting": "[2]; [3]", "result": "697 ± 149", "unit": "nm/s"}, {"measurement": "Vr, retrograde velocity after washout", "setting": "[2]; [3]", "result": "467 ± 136", "unit": "nm/s"}, {"measurement": "Reduction of anterograde particle velocities", "setting": "[2]; 5 µM, 5 min, versus DMSO control", "result": "~ 18%"}, {"measurement": "Fr, retrograde frequency", "setting": "[2]; 5 µM, 5 min, DMSO control 6.5 ± 4", "result": "4.1 ± 3", "unit": "counts/minute"}, {"measurement": "Fa, anterograde frequency", "setting": "[2]; 5 µM, 5 min, DMSO control 11.3 ± 3", "result": "8.5 ± 5", "unit": "counts/minute"}, {"measurement": "Vr, retrograde velocity", "setting": "[2]; 5 µM, 5 min, DMSO control 421 ± 156", "result": "156 ± 107", "unit": "nm/s"}, {"measurement": "Va, anterograde velocity", "setting": "[2]; 5 µM, 5 min, DMSO control 694 ± 117", "result": "566 ± 116", "unit": "nm/s"}, {"measurement": "Fr, retrograde frequency", "setting": "[2]; 5 µM, 10 min, DMSO control 5.9 ± 3", "result": "4.2 ± 3", "unit": "counts/minute"}, {"measurement": "Fa, anterograde frequency", "setting": "[2]; 5 µM, 10 min, DMSO control 10.2 ± 3", "result": "6.9 ± 4", "unit": "counts/minute"}, {"measurement": "Vr, retrograde velocity", "setting": "[2]; 5 µM, 10 min, DMSO control 354 ± 134", "result": "202 ± 180", "unit": "nm/s"}, {"measurement": "Va, anterograde velocity", "setting": "[2]; 5 µM, 10 min, DMSO control 655 ± 124", "result": "572 ± 121", "unit": "nm/s"}, {"measurement": "Fa, anterograde frequency after low-serum washout", "setting": "[2]; [4]", "result": "10.1 ± 4", "unit": "counts/minute"}, {"measurement": "Fr, retrograde frequency after low-serum washout", "setting": "[2]; [4]", "result": "5.2 ± 2", "unit": "counts/minute"}, {"measurement": "Va, anterograde velocity after low-serum washout", "setting": "[2]; [4]", "result": "620 ± 134", "unit": "nm/s"}, {"measurement": "Vr, retrograde velocity after low-serum washout", "setting": "[2]; [4]", "result": "219 ± 117", "unit": "nm/s"}, {"measurement": "Fa, anterograde frequency after high-serum washout", "setting": "[2]; [5]", "result": "18.8 ± 5", "unit": "counts/minute"}, {"measurement": "Fr, retrograde frequency after high-serum washout", "setting": "[2]; [5]", "result": "12.4 ± 6", "unit": "counts/minute"}, {"measurement": "Va, anterograde velocity after high-serum washout", "setting": "[2]; [5]", "result": "660 ± 112", "unit": "nm/s"}, {"measurement": "Vr, retrograde velocity after high-serum washout", "setting": "[2]; [5]", "result": "441 ± 156", "unit": "nm/s"}, {"measurement": "Fa, anterograde frequency", "setting": "[2]; 10 µM", "result": "6.8 ± 4", "unit": "counts/minute"}, {"measurement": "Fr, retrograde frequency", "setting": "[2]; 10 µM", "result": "4.0 ± 2", "unit": "counts/minute"}, {"measurement": "Va, anterograde velocity", "setting": "[2]; 10 µM", "result": "466 ± 183", "unit": "nm/s"}, {"measurement": "Vr, retrograde velocity", "setting": "[2]; 10 µM", "result": "121 ± 78", "unit": "nm/s"}]}
